Read-outs that look alike come from different tables or passages of the source.
Key:
[1] = Assay IV: metabolism of conjugate to fusaric acid in rat kidney homogenate; format: in vitro ADME
Method: A freshly excised rat kidney was homogenized in 10 ml cold buffer (100 mM Tris, 15 mM glycylglycine, pH 7.4) with a Polytron Tissue Homogenizer (Brinkmann). The resulting suspension, diluted with buffer, was incubated in the presence of the Ex. #859 conjugate at 37° C. At various times aliquots were removed, deproteinized with an equal volume of cold trichloroacetic acid (25%) and centrifuged. The supernatant was injected onto a C-18 reverse-phase HPLC column and eluted isocratically with a mixture of acetonitrile and water (20:80 v/v) containing trifluoroacetic acid (0.05%). Eluted compounds were monitored by absorbance at 254 nm and compared to standards run under identical conditions. In the assay using pure kidney enzyme homogenate, the Ex. #859 conjugate was also incubated under the same conditions as described except that 5 mg of gamma-glutamyl transpeptidase (Sigma, 23 units/mg) and 10 mg of acylase I (Sigma, 4800 units/mg) were added in place of the homogenate. Analysis by HPLC was performed in a manner identical to that used for the kidney homogenate experiment.

[2] = target: T1, dopamine beta-hydroxylase (DBH; EC 1.14.17.1) (Bos taurus, UniProt P15101); test: Assay V: in vitro DBH inhibition (norepinephrine production, HPLC); format: biochemical, bovine; conditions: for inhibition at 20 µM: read-out: % Inhibition of DBH; for inhibitory effect on dopamine-β-hydroxylase activity: tested at 20 uM
T1 construct: DBH, purified from bovine adrenals (Sigma); purchased Sigma; host or cells: bovine adrenals (tissue-purified)
T1 sequence (P15101 1-610): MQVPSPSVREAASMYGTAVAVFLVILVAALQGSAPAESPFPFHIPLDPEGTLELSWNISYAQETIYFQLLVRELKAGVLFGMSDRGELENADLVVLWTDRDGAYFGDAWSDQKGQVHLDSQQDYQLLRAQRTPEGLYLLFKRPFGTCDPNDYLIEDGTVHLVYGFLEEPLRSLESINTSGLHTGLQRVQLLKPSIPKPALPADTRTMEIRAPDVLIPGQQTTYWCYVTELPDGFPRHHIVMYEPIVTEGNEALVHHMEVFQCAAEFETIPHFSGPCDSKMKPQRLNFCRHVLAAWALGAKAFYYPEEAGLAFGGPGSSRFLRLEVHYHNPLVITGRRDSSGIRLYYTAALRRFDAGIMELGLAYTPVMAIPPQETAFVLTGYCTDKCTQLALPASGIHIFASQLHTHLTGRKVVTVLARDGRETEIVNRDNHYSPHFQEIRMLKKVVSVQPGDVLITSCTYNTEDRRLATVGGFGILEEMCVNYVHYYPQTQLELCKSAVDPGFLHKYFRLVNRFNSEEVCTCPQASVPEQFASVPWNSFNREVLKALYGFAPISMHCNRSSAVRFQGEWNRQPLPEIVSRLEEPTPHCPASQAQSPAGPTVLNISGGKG
Method: In order to characterize the relative potency of the Ex. #859 conjugate and its various potential metabolites as inhibitors of dopamine beta-hydroxylase (DBH; EC 1.14.17.1), the enzyme activity was determined in vitro in the presence of these compounds. DBH, purified from bovine adrenals (Sigma) was incubated at 37° C. in buffer containing 20 mM dopamine as substrate. The reaction was stopped by addition of 0.5 M perchloric acid. The precipitate was removed and the product of the enzyme activity (norepinephrine), contained in the clear supernatant, was analyzed by HPLC. The chromatographic separation used a reversed phase C-18 column run isocratically with 0.2 M ammonium acetate (pH 5.2) as the mobile phase. The amount of norepinephrine produced by the enzyme-substrate mixture was analyzed by measuring the peak intensity (absorbance) at 280 nm for norepinephrine as it was eluted at 4.5 minutes, using a photo-diode array detector. The result of adding either fusaric acid or the Ex. #859 conjugate to the incubate at various concentrations is shown in Table XXIII and FIG. 6. […] Fusaric acid and Ex. #859 and two more possible metabolites (Ex #858 and fusaric acid hydrazide) were tested at 20 uM.

[3] = tested on: spontaneously hypertensive rats; test: Assay VI: acute in vivo effects on mean arterial pressure and renal blood flow in anesthetized SHR (i.v. or i.d.); set-up: species or system rat; conditions: for MAP / RBF / acute effect on mean arterial pressure / acute effect on renal blood flow: 50 mg/kg i.v.
Method: Spontaneously hypertensive rats were anesthetized with inactin (100 mg/kg, i.p.) and catheters were implanted into a carotid artery for measurement of mean arterial pressure (Gould model 3800 chart recorder; Statham pressure transducer model no. P23DB) and into a jugular vein for compound administrations (i.v. or i.d.). In addition, a flow probe was implanted around the left renal artery for measurement of renal blood flow using pulsed Doppler flowmetry. Rats were allowed 60 min to stabilize before 10 minutes of control recordings of mean arterial pressure and renal blood flow were obtained. Control measurements were followed by intravenous injection of 50 mg/kg of fusaric acid or the Ex. #859 conjugate. […] The Ex. #859 conjugate had no effect on mean arterial pressure at a dose of 100 mg/kg (n=4) during a 60 minute observation period. Renal blood flow (n=4) was unchanged 15 minutes after injection of the Ex. #859 conjugate but increased from 1.1 KHz (control period) to 3.5 KHz at 30 minutes postinjection.

SHR = test: Assay VIII: chronic 5 day i.v. infusion, mean arterial pressure in SHR; format: in vivo, rat; conditions: for chronic effect on mean arterial pressure compared to vehicle: SHR, 5 day infusion, Ex. #859 5 mg/hr, fusaric acid 2.5 mg/hr
Method: The Ex. #859 conjugate and saline vehicle were infused continuously for 5 days in SHR. Mean arterial pressure was measured (Gould Chart Recorder, model 3800; Statham P23Db pressure transducer) via an indwelling femoral artery catheter between 10:00 a.m. and 2:00 p.m. each day. The Ex. #859 conjugate (5 mg/hr), fusaric acid (2.5 mg/hr), and saline (100 μ1/hr) were infused via a jugular vein catheter with a Harvard infusion pump.

[4] = anesthetized SHR, 60 minute observation

| Structure (SMILES) | Norepinephrine Peak Intensity (Abs 280) in the presence of compound ([2]; compound 0.10 μM) [Abs 280] | Norepinephrine Peak Intensity (Abs 280) in the presence of compound ([2]; compound 1.00 μM) [Abs 280] | Norepinephrine Peak Intensity (Abs 280) in the presence of compound ([2]; compound 10.00 μM) [Abs 280] | Norepinephrine Peak Intensity (Abs 280) in the presence of compound ([2]; compound 100.00 μM) [Abs 280] | inhibitory effect on dopamine-β-hydroxylase activity [2] | MAP ([3]; 15 min) [mm Hg] | RBF ([3]; 15 min) [KHz] | MAP ([3]; 30 min) [mm Hg] | RBF ([3]; 30 min) [KHz] | MAP ([3]; 45 min) [mm Hg] | RBF ([3]; 45 min) [KHz] | MAP ([3]; 60 min) [mm Hg] | RBF ([3]; 60 min) [KHz] | MAP ([3]; time zero (control)) [mm Hg] | RBF ([3]; time zero (control)) [KHz] | acute effect on mean arterial pressure [3, 4] | acute effect on renal blood flow [3, 4] | chronic effect on mean arterial pressure compared to vehicle (SHR) | other results |
| --- | --- | --- | --- | --- | --- | --- | --- | --- | --- | --- | --- | --- | --- | --- | --- | --- | --- | --- | --- |
| CCCCc1ccc(C(=O)NNC(=O)CCC(NC(C)=O)C(=O)O)nc1 [Ex. #859, N-acetyl-L-glutamic acid, 5-[(5-butyl-2-pyridinyl)-carbonyl]hydrazide] | 0.51 | 0.52 | 0.61 | 0.53 | Only fusaric acid had significant inhibitory effects | 163 | 3.8 | 164 | 4.0 | 157 | 4.6 | 159 | 4.8 | 156 | 2.4 | no acute effects | increased renal blood flow to a greater degree than fusaric acid | lowered mean arterial pressure similarly | amount of fusaric acid liberated on incubation ([1]; kidney homogenate, 37° C): linear increase; other metabolites observed (fusaric acid hydrazide, gamma-glutamyl fusaric acid hydrazide) ([1]; kidney homogenate, 37° C): No fusaric acid hydrazide or gamma-glutamyl fusaric acid hydrazide was observed; DBH inhibitory activity ([2]; concentrations up to 100 uM): no appreciable activity; inhibition at 20 µM ([2]; test compound 20 μM): 1.5%; Renal blood flow change ([3]; anesthetized SHR, i.d. 100 mg/kg, 15 minutes after injection): unchanged; Renal Blood Flow ([3]; anesthetized SHR, i.d. 100 mg/kg, 30 minutes postinjection): 3.5 KHz; effect on mean arterial pressure ([3]; anesthetized SHR, i.d. 100 mg/kg, 60 minute observation): no effect; Renal Blood Flow ([3]; anesthetized SHR, i.d. 100 mg/kg, control period): 1.1 KHz; Renal blood flow course ([3]; anesthetized SHR, i.d. 100 mg/kg, following 30 minute observation period (30-60 min)): remained at this level; MAP (SE) (SHR; 5 mg/hr i.v. infusion, day 1): 122 ± 9 mm Hg; MAP (SE) (SHR; 5 mg/hr i.v. infusion, day 2): 115 ± 9 mm Hg; MAP (SE) (SHR; 5 mg/hr i.v. infusion, day 3): 119 ± 11 mm Hg; MAP (SE) (SHR; 5 mg/hr i.v. infusion, day 4): 121 ± 7 mm Hg; MAP (SE) (SHR; 5 mg/hr i.v. infusion, day 5): 115 ± 8 mm Hg; MAP (SE) (SHR; 5 mg/hr i.v. infusion, day zero): 146 ± 5 mm Hg |
| CCCCc1ccc(C(=O)O)nc1 [Fusaric Acid, 5-n-butylpicolinic acid] | 0.59 | 0.53 | 0.14 | 0.00 | significant inhibitory effects | 111 | 3.1 | 106 | 3.2 | 103 | 3.4 | 99 | 3.9 | 155 | 2.5 | decreased mean arterial pressure | increased renal blood flow | lowered mean arterial pressure similarly | stability of liberated fusaric acid ([1]; kidney homogenate incubation conditions): remains stable; concentration above which the enzyme is inhibited ([2]; 20 mM dopamine as substrate, 37° C): > 1 µM; Norepinephrine Peak Intensity (Abs 280) in the presence of compound ([2]; compound 0.01 μM): 0.59 Abs 280; Norepinephrine Peak Intensity (Abs 280) in the presence of compound ([2]; compound 0.50 μM): 0.60 Abs 280; Norepinephrine Peak Intensity (Abs 280) in the presence of compound ([2]; compound 5.00 μM): 0.25 Abs 280; Norepinephrine Peak Intensity (Abs 280) in the presence of compound ([2]; compound 50.00 μM): 0.00 Abs 280; inhibition at 20 µM [2]: 75.4%; MAP (SE) (SHR; 2.5 mg/hr i.v. infusion, day 1): 118 ± 5 mm Hg; MAP (SE) (SHR; 2.5 mg/hr i.v. infusion, day 2): 114 ± 7 mm Hg; MAP (SE) (SHR; 2.5 mg/hr i.v. infusion, day 3): 122 ± 5 mm Hg; MAP (SE) (SHR; 2.5 mg/hr i.v. infusion, day 4): 114 ± 6 mm Hg; MAP (SE) (SHR; 2.5 mg/hr i.v. infusion, day 5): 114 ± 3 mm Hg; MAP (SE) (SHR; 2.5 mg/hr i.v. infusion, day zero): 148 ± 6 mm Hg |

Source: US20030220521A1, “Renal-selective prodrugs for control of renal sympathetic nerve activity in the treatment of hypertension” (G.D. Searle & Co., priority 1989, published 2003)
